Marks after values point to notes of the source that are not given here.
How the values were obtained:
[1] = target: T1, RARγ (Mus musculus, UniProt P18911); assay: RAR gamma transactivation assay (gal4-RAR LBD fusion, luciferase reporter, COS-7 cells); assay type: cell-based; conditions: mouse RAR ligand binding domain; Tables 1 and 4; read-out: γ EC50
T1 construct: expressed in transfected cells; host or cells: COS-7
T1 sequence (P18911 185-419 limits assumed): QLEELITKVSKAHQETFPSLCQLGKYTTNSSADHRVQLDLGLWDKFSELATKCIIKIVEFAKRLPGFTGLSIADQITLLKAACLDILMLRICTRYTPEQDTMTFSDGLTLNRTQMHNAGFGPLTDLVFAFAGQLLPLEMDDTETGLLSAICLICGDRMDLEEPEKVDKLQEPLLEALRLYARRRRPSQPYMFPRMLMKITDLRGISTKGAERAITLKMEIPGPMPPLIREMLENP
Method: (§1) Compounds were tested in transactivation assays at the RAR α, β and γ receptors.
(§2) Transactivation assays for RAR alpha, beta and gamma receptors:
(§3) Transcriptional transactivation assays have been performed with gal4 fusion receptor constructs, created using each of the mouse RAR ligand-binding domains, co-transfected with the pFR-luc (Stratagene) reporter construct in COS-7 cells.
(§4) Briefly, on day one, 96 well plates were seeded with 8000 cells per well then left to recover overnight. On day two, the cells were co-transfected with 100ng of reporter plasmid and 10ng of the appropriate receptor plasmid per well using lipofectamine (Invitrogen). On day three, the lipofectamine containing media was replaced by a DMEM without phenol red, followed by the addition of novel compounds dissolved in 1µl of DMSO to each well’s 100µl total volume. Finally, on day four, the cells were lysed and their luciferase substrate was provided by the BrightGlo reagent (Promega), the plates were then read on the MicroBeta TriLux (Perkin Elmer).
(§5) Data for test compounds are quoted as EC50 values. Where replicate data has been generated the data are quoted as the mean EC50 from the separate experiments.

[2] = system: Cerebellar neurons; assay: Neurite outgrowth in cerebellar cultures on CHO-MAG monolayer; assay type: cell-based; conditions: 24 hr treatment, 1 × 10^−8–1 × 10^−6 M
Method: Compound 10 was evaluated for neurite outgrowth/branching in cerebellar cultures. Cerebellar cultures grown on a monolayer of CHO-MAG were treated with RARβ agonists and neurite outgrowth was assessed by immunostaining and neurite length quantification.[10]
Fig. 1 Effects of RARβ agonists 10 on neurite outgrowth. Cerebellar neurons grown on a monolayer of CHO-MAG cells were treated for 24 hr with either vehicle (V) or increasing doses of RARβ agonists (1 × 10^−8–1 × 10^−6 M). Both RARβ agonists increase neurite outgrowth in a dose dependant manner. Results are means from 3 independent experiments. Statistical analysis was done using Student’s t-test between vehicle and each drug’s highest dose. Error bars are SEM and **p ≤ 0.001, *p ≤ 0.01.

[3] = LogD by shake flask method; assay type: physicochemical; conditions: pH 7.4
[4] = target: T2, RARα (Mus musculus, UniProt P11416); assay: RAR alpha transactivation assay (gal4-RAR LBD fusion, luciferase reporter, COS-7 cells); assay type: cell-based; conditions: mouse RAR ligand binding domain; usually three experiments; read-out: α EC50
T2 construct: expressed in transfected cells; host or cells: COS-7
T2 sequence (P11416 183-417 limits assumed): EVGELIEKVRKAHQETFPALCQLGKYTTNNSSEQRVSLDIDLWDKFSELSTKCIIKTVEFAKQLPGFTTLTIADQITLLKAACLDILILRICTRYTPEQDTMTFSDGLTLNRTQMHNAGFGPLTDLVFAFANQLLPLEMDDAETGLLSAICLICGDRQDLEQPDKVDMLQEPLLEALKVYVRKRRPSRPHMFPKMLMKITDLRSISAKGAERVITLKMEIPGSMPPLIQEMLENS
Method: as §1, §2, §3, §4, §5

[5] = target: Cyp450 2D6 (Homo sapiens, UniProt P10635); assay: Cyp450 inhibition, 2D6; assay type: in vitro ADME; conditions: isoform 2D6
[6] = target: T3, RARβ (Mus musculus, UniProt P22605); assay: RAR beta transactivation assay (gal4-RAR LBD fusion, luciferase reporter, COS-7 cells); assay type: cell-based
T3 construct: expressed in transfected cells; host or cells: COS-7
T3 sequence (P22605 210-444 limits assumed): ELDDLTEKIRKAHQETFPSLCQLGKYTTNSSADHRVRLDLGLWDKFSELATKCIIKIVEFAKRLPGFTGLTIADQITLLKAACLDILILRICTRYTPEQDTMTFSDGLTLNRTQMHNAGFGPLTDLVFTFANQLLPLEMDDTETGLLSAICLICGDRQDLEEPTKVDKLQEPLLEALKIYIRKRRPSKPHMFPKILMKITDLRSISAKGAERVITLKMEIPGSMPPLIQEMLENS
Method: as §1, §2, §3, §4, §5

[7] = system: avulsed rats; assay: Rodent model of avulsion: sensory and locomotor tasks; assay type: in vivo, rat; conditions: 3 mg/kg, po, three times a week
Method: Rats were trained for two weeks prior to surgery in behavioural tasks and scores were recorded the day before surgery, the day after surgery and then weekly, for four weeks. Surgery was performed as previously described.[11], [12] In a sticky tape task, the time taken to sense and remove the tape from the paw of the lesioned forelimbs was measured. […] In locomotor tasks, the number of foot slips in a horizontal ladder made by the injured forelimb of the compound 10 treated rats was also measured. […] Further details and data on an in vivo model of crush injury will be presented in due course.
Fig. 2 Effects of oral administration of compound 10 in sensory and locomotor functions in avulsed rats. Dose 3 mg/kg, po, three times a week, every other day. Data represent mean ± SEM of n = 8, **p ≤ 0.005, ***p ≤ 0.001. Two-way repeated-measures ANOVA, Tukey’s post-hoc test.

[8] = Solubility; assay type: physicochemical; conditions: pH 7.4, as the amorphous sodium salt
[9] = target: T4, RARβ (Homo sapiens, UniProt P10826); assay: Transactivation against the human RAR ligand-binding domains; assay type: cell-based
T4 construct: expressed in transfected cells
T4 sequence (P10826 183-417 limits assumed): T3 sequence (P22605 210-444 limits assumed)
Source text: The more drug-like template present in 10 translates into a good in vitro and in vivo profile for this RARβ agonist (Table 5).

[10] = Pharmacokinetics in rat; assay type: in vivo; parameters: Volume distribution ss: unit not given here
[11] = target: Cyp450 3A4 (Homo sapiens, UniProt P08684); assay: Cyp450 inhibition, 3A4; assay type: in vitro ADME; conditions: isoform 3A4
[12] = system: three bacterial strains; assay type: cell-based
[13] = system: CHO-K1 cells; assay: In vitro micronucleus test; assay type: cell-based; conditions: presence and absence of S9
Source text: Similar, negative results were obtained in an in vitro micronucleus test in CHO-K1 cells, in both the presence and absence of S9.

[14] = Mouse plasma protein binding; assay type: in vitro ADME

Sequence of Cyp450 3A4 (P08684 whole entry, canonical isoform): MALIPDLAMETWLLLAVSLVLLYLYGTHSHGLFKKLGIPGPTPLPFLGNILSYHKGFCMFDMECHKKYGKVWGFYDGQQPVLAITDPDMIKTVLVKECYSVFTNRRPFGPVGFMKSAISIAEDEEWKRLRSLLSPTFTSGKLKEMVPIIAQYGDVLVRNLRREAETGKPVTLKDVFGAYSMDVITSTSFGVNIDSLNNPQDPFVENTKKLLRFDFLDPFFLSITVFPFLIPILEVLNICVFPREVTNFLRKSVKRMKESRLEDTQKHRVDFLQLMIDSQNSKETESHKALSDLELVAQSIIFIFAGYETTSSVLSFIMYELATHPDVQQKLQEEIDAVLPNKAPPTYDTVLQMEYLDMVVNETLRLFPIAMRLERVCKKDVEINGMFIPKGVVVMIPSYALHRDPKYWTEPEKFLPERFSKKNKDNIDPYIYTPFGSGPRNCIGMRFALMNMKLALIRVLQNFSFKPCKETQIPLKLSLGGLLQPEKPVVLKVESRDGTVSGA
Sequence of Cyp450 2D6 (P10635 whole entry, the tested form may be a part, canonical isoform): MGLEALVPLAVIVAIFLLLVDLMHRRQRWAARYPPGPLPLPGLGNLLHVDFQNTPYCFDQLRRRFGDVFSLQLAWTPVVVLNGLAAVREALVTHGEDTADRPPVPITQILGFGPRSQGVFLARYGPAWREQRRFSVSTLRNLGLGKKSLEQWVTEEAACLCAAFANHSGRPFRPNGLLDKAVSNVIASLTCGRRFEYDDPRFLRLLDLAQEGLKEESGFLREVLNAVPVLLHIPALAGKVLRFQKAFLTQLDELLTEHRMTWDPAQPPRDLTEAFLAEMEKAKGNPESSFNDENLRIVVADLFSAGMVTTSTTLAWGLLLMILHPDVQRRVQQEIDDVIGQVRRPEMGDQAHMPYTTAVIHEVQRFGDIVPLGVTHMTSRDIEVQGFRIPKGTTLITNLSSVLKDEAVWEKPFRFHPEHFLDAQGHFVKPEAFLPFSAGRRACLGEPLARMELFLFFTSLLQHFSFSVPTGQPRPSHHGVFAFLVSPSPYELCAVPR

In the case of `Cc1ccc(C)c2oc(-c3nc(-c4ccc(C(=O)O)cc4)no3)cc12` [Compound 10, 4-(5-(4,7-dimethylbenzofuran-2-yl)-1,2,4-oxadiazol-3-yl)benzoic acid], the EC50 [1] is reported as 11 nM, the “neurite length / outgrowth” value [2] is reported as “increased neurite length in a dose dependant manner” and the logD [3] is reported as 2.8. For the same compound, the EC50 [4] was 26 nM, the IC50 [5] was over 25000 nM and the “Fold selectivity for β over α” value ([6]; EC50 ratio of α to β, mouse, Tables 1 and 4) was 13. The “Fold selectivity for β over γ” value ([6]; EC50 ratio of γ to β, mouse) was 5.6, the “agonist behaviour (full/partial) relative to ATRA” value ([6]; maximum upper asymptote within 20% of that found for ATRA) was “full agonist” and the EC50 ([6]; mouse RAR ligand binding domain, usually three experiments, read-out: β EC50) was 1.9 nM. For the same compound, the “sticky tape task latency (sense and remove tape), injured forelimb vs vehicle” value ([7]; from week three) was “significantly lower latencies”, the “number of foot slips in horizontal ladder, injured forelimb vs vehicle” value ([7]; from week two) was “markedly lower” and the solubility [8] was over 100 µM. The “fold selectivity for RARβ over RARα” value [9] was 23 fold, the “fold selectivity for RARβ over RARγ” value [9] was 5 fold and the EC50 ([9]; read-out: RARβ potency EC50) was 2.05 nM. For the same compound, the clearance ([10]; blood, rat, iv dose 0.5 mg/kg) was 3.7 mL/min/kg, the Tmax ([10]; in vivo, rat, oral doses of 1, 3 and 10 mg/kg) was 1.7 h and the t1/2 ([10]; rat) was 1.4 h. The Volume distribution ss ([10]; rat, iv dose 0.5 mg/kg) was 0.41, the Fraction absorbed ([10]; rat, mean of 1, 3 and 10 mg/kg oral in comparison to iv 0.5 mg/kg) was 80 ^b % and the oral bioavailability ([10]; rats) was over 40%. For the same compound, the “CNS penetration: brain tissue compared to plasma” value ([10]; rats, 8 h after dosing orally) was “nearly equivalent amounts detected in brain tissue when compared to plasma”, the IC50 [11] was over 25000 nM and the Ames test result [12] was “inactive”. The “in vitro micronucleus test result” value [13] was “negative” and the fraction unbound [14] was 0.05.
